In patent US12729377B2, “RNAi agents and compositions for inhibiting expression of angiopoietin-like 3 (ANGPTL3), and methods of use” (Arrowhead Pharmaceuticals, Inc., priority 2017, dated 2026):
In the oligonucleotide strings, read from the 5' end, every base follows the letter of its sugar. An asterisk marks phosphorothioate; unmarked linkages are phosphodiester. Other units and linkages are bracketed, terminal groups are in braces. A string of capitals states the bases alone. {NAG37} = tridentate N-acetyl-galactosamine targeting ligand, structure (NAG37)s; [invAb] = inverted abasic unit; m = 2'-O-methyl; f = 2'-fluoro

Experiments:
[1] = system: ANGPTL3 gene; experiment: Example 3: serum HDL in mice; type: in vivo
Protocol: (§1) To assess the in vivo activity of ANGPTL3 RNAi agents that are designed to target positions 921 and 922 on the ANGPTL3 gene, six- to eight-week-old female C57bl/6 mice were used. Pre-dose serum samples were taken at day −1 after a four hour fast. At day 1, each mouse was given a single subcutaneous administration of 200 μl containing either 1 mg/kg (mpk) of an ANGPTL3 RNAi agent in D5W (dextrose in 5% water), or control (D5W) with no RNAi agent, according to the dosing groups recited in Table 12.
(§2) Each of the RNAi agents included a modified sequence and an N-acetyl-galactosamine-containing targeting ligand conjugated to the 5′ terminal end of the sense strand. (See Tables 3, 4, and 5 for modified sequences and targeting ligand structures). The injections were performed between the skin and muscle (i.e. subcutaneous injections) into the loose skin over the neck and shoulder area. Three (3) mice in each group were tested (n=3). […] Mice were fasted for four hours prior to each collection. ANGPTL3 protein levels in serum were measured by ELISA assay (R&D Systems), according to the manufacturer's recommendations. Triglycerides, high-density lipoprotein (HDL), and total cholesterol in serum were measured on a Cobas® Integra 400 (Roche Diagnostics), according to the manufacturer's recommendations.
(§3) The ANGPTL3 protein levels, triglyceride levels, HDL levels, and total cholesterol levels for each animal were normalized. For normalization, the level of ANGPTL3 protein, triglyceride, HDL, and total cholesterol, respectively, for each animal at a time point, was divided by the pre-treatment level of expression in that animal (in this case at day −1) to determine the ratio of expression “normalized to pre-treatment.” Expression at a specific time point was then normalized to the D5W control group by dividing the “normalized to pre-treatment” ratio for an individual animal by the mean “normalized to pretreatment” ratio of all mice in the D5W control group.

[2] = system: ANGPTL3 protein; experiment: Example 3: serum ANGPTL3 protein by ELISA in mice; type: in vivo, C57bl/6 mice; conditions: for Avg ANGPTL3 (Average ANGPTL3 Protein Normalized to Pre-Treatment and Control): 1.0 mg/kg single subcutaneous dose on day 1, serum, female C57bl/6 mice
Protocol: as §1, §2, §3

[3] = system: ANGPTL3 gene; experiment: Example 4: serum LDL in mice; type: in vivo, C57bl/6 mice; conditions: for Avg LDL, normalized to pre-treatment and control: serum, n=3
Protocol: as §1, with “target additional” for “target”, “positions” for “positions 921 and 922”, “(mpk) or 0.5 mg/kg (mpk)” for “(mpk)”, “17.” for “12.”
(§4) Each of the RNAi agents included a modified sequence and an N-acetyl-galactosamine-containing targeting ligand conjugated to the 5′ terminal end of the sense strand. (See Tables 3, 4, and 5 for modified sequences and targeting ligand structures). The injections were performed between the skin and muscle (i.e. subcutaneous injections) into the loose skin over the neck and shoulder area. Three (3) mice in each group were tested (n=3). Serum was collected on days 8, 15, 22, 29, and day 43 (Groups 1-3, 9, and 11-13 only). Mice were fasted for four hours prior to each collection. ANGPTL3 protein levels in serum were measured by ELISA assay (R&D Systems), according to the manufacturer's recommendations. Triglycerides, high-density lipoprotein (HDL), and total cholesterol in serum were measured on a Cobas® Integra 400 (Roche Diagnostics), according to the manufacturer's recommendations.
as §3

[4] = system: ANGPTL3 protein; experiment: Example 4: serum ANGPTL3 protein by ELISA in mice; type: in vivo, C57bl/6 mice; conditions: for Avg ANGPTL3 (Average ANGPTL3 Protein Normalized to Pre-Treatment and Control): serum, female C57bl/6 mice
Protocol: as §1, with “target additional” for “target”, “positions” for “positions 921 and 922”, “(mpk) or 0.5 mg/kg (mpk)” for “(mpk)”, “17.” for “12.”
as §4, §3

[5] = system: ANGPTL3 gene; experiment: Example 7: serum total cholesterol in mice; type: in vivo, C57bl/6 mice; set-up: key: ratio: (level/pre-treatment day -1 level) ÷ mean of D5W control group
Protocol: To further assess the in vivo activity of additional ANGPTL3 RNAi agents that are designed to target position 304 on the ANGPTL3 gene, six- to eight-week-old female C57bl/6 mice were used. Pre-dose serum samples were taken at day −1 after a four hour fast. At day 1, each mouse was given a single subcutaneous administration of 200 μl containing 0.5 mg/kg (mpk) of an ANGPTL3 RNAi agent in D5W (dextrose in 5% water), or control (D5W) with no RNAi agent, according to the dosing groups recited in Table 31.
as §4, with “22,” for “22, 29,”, “29.” for “day 43 (Groups 1-3, 9, and 11-13 only).”, “Triglycerides, total cholesterol,” for “Triglycerides,”, “low-density lipoprotein (LDL)” for “total cholesterol”
The ANGPTL3 protein levels, triglyceride levels, total cholesterol levels, HDL levels, and LDL levels for each animal were normalized. For normalization, the level of ANGPTL3 protein, triglyceride, HDL, and total cholesterol, respectively, for each animal at a time point, was divided by the pre-treatment level of expression in that animal (in this case at day −1) to determine the ratio of expression “normalized to pre-treatment.” Expression at a specific time point was then normalized to the D5W control group by dividing the “normalized to pre-treatment” ratio for an individual animal by the mean “normalized to pretreatment” ratio of all mice in the D5W control group.

[6] = Day 8, 1.0 mg/kg single subcutaneous dose on day 1, female C57bl/6 mice
[7] = Day 15, 1.0 mg/kg single subcutaneous dose on day 1, female C57bl/6 mice
[8] = Day 22, 1.0 mg/kg single subcutaneous dose on day 1, female C57bl/6 mice
[9] = Day 29, 1.0 mg/kg single subcutaneous dose on day 1, female C57bl/6 mice
[10] = Day 8, 1.0 mg/kg single SC injection on day 1
[11] = Day 15, 1.0 mg/kg single SC injection on day 1
[12] = Day 22, 1.0 mg/kg single SC injection on day 1
[13] = Day 29, 1.0 mg/kg single SC injection on day 1
[14] = Day 43, 1.0 mg/kg single SC injection on day 1
[15] = Day 8, 1.0 mg/kg single subcutaneous dose on day 1
[16] = Day 15, 1.0 mg/kg single subcutaneous dose on day 1
[17] = Day 22, 1.0 mg/kg single subcutaneous dose on day 1
[18] = Day 29, 1.0 mg/kg single subcutaneous dose on day 1
[19] = Day 43, 1.0 mg/kg single subcutaneous dose on day 1
[20] = Day 8, 0.5 mg/kg single SC injection on day 1, n=3
[21] = Day 15, 0.5 mg/kg single SC injection on day 1, n=3
[22] = Day 22, 0.5 mg/kg single SC injection on day 1, n=3
[23] = Day 29, 0.5 mg/kg single SC injection on day 1, n=3
[24] = day 22, single 1 mg/kg subcutaneous, C57bl/6 mice

| Substance | Avg HDL (Average HDL Normalized to Pre-Treatment and Control) [1, 6] | Avg HDL (Average HDL Normalized to Pre-Treatment and Control) [1, 7] | Avg HDL (Average HDL Normalized to Pre-Treatment and Control) [1, 8] | Avg HDL (Average HDL Normalized to Pre-Treatment and Control) [1, 9] | Avg ANGPTL3 (Average ANGPTL3 Protein Normalized to Pre-Treatment and Control) ([2]; Day 8) | Avg ANGPTL3 (Average ANGPTL3 Protein Normalized to Pre-Treatment and Control) ([2]; Day 15) | Avg ANGPTL3 (Average ANGPTL3 Protein Normalized to Pre-Treatment and Control) ([2]; Day 22) | Avg ANGPTL3 (Average ANGPTL3 Protein Normalized to Pre-Treatment and Control) ([2]; Day 29) | Avg LDL, normalized to pre-treatment and control [3, 10] | Avg LDL, normalized to pre-treatment and control [3, 11] | Avg LDL, normalized to pre-treatment and control [3, 12] | Avg LDL, normalized to pre-treatment and control [3, 13] | Avg LDL, normalized to pre-treatment and control [3, 14] | Avg ANGPTL3 (Average ANGPTL3 Protein Normalized to Pre-Treatment and Control) [4, 15] | Avg ANGPTL3 (Average ANGPTL3 Protein Normalized to Pre-Treatment and Control) [4, 16] | Avg ANGPTL3 (Average ANGPTL3 Protein Normalized to Pre-Treatment and Control) [4, 17] | Avg ANGPTL3 (Average ANGPTL3 Protein Normalized to Pre-Treatment and Control) [4, 18] | Avg ANGPTL3 (Average ANGPTL3 Protein Normalized to Pre-Treatment and Control) [4, 19] | Avg Total Chol, normalized to pre-treatment and control [5, 20] | Avg Total Chol, normalized to pre-treatment and control [5, 21] | further results |
| --- | --- | --- | --- | --- | --- | --- | --- | --- | --- | --- | --- | --- | --- | --- | --- | --- | --- | --- | --- | --- | --- |
| AD05307: RNAi agent duplex: antisense AM07001-AS, sense AM07000-SS (chain 1 mU*fU*mU*fGmAfAmUfUmAfAmUfGmUfCmCfAmUfGmGmG*mC; chain 2 {NAG37}*[invAb]*mGmCmCmCmAmUmGmGfAfCfAmUmUmAmAmUmUmCmAmAmA*[invAb]) | 0.916 | 0.856 | 0.913 | 1.053 | 0.323 | 0.311 | 0.346 | 0.486 |  |  |  |  |  |  |  |  |  |  |  |  |  |
| AD05308: RNAi agent duplex: antisense AM07003-AS, sense AM07002-SS (chain 1 mU*fG*mU*fUmGfAmAfUmUfAmAfUmGfUmCfCmAfUmGfG*mA; chain 2 {NAG37}*[invAb]*mUmCmCmAmUmGmGmAfCfAfUmUmAmAmUmUmCmAmAmCmA*[invAb]) | 0.838 | 0.754 | 0.739 | 0.953 | 0.196 | 0.202 | 0.209 | 0.309 | 0.842 | 0.688 | 0.829 | 0.897 | 1.033 | 0.299 | 0.298 | 0.252 | 0.322 | 0.643 | 0.756 | 0.814 | Avg LDL, normalized to pre-treatment and control ([3]; Day 8, 0.5 mg/kg single SC injection on day 1): 0.965; Avg LDL, normalized to pre-treatment and control ([3]; Day 15, 0.5 mg/kg single SC injection on day 1): 0.830; Avg ANGPTL3 (Average ANGPTL3 Protein Normalized to Pre-Treatment and Control) ([4]; Day 8, 0.5 mg/kg single subcutaneous dose on day 1): 0.340; Avg ANGPTL3 (Average ANGPTL3 Protein Normalized to Pre-Treatment and Control) ([4]; Day 15, 0.5 mg/kg single subcutaneous dose on day 1): 0.310; Avg ANGPTL3 (Average ANGPTL3 Protein Normalized to Pre-Treatment and Control) ([4]; Day 22, 0.5 mg/kg single subcutaneous dose on day 1): 0.319; Avg ANGPTL3 (Average ANGPTL3 Protein Normalized to Pre-Treatment and Control) ([4]; Day 29, 0.5 mg/kg single subcutaneous dose on day 1): 0.345; Avg ANGPTL3 (Average ANGPTL3 Protein Normalized to Pre-Treatment and Control) ([4]; Day 43, 0.5 mg/kg single subcutaneous dose on day 1): 0.582; Avg Total Chol, normalized to pre-treatment and control [5, 22]: 0.896; Avg Total Chol, normalized to pre-treatment and control [5, 23]: 0.927; ANGPTL3 protein normalized to pre-treatment and control [2, 24]: 0.209; reduction in ANGPTL3 protein levels compared to control [2, 24]: ~80% |
| AD05488: RNAi agent duplex: antisense AM07235-AS, sense AM07234-SS (antisense mU*fA*mC*fUmGfAmUfCmAfAmAfUmAfUmGfUmUfGmAfG*mC; sense {NAG37}*[invAb]*mGmCmUmCmAmAmCmAfUfAfUmUmUmGmAmUmCmAmGmUmA*[invAb]) |  |  |  |  |  |  |  |  | 0.936 | 0.714 | 0.811 | 0.801 | 0.902 | 0.090 | 0.070 | 0.092 | 0.124 | 0.254 | 0.802 | 0.810 | LDL levels reduced ([3]; day 29, single 1 mg/kg subcutaneous, C57bl/6 mice): ~20%; ANGPTL3 protein normalized to pre-treatment and control ([4]; day 15, single 1 mg/kg subcutaneous, C57bl/6 mice): 0.070; ANGPTL3 protein normalized to pre-treatment and control [4, 24]: 0.092; knockdown of ANGPTL3 protein ([4]; days 15 and 22, single 1 mg/kg subcutaneous, C57bl/6 mice): greater than 90%; Avg Total Chol, normalized to pre-treatment and control [5, 22]: 0.810; Avg Total Chol, normalized to pre-treatment and control [5, 23]: 0.906 |
